Test results taken from ChEMBL document CHEMBL5523766 (J Med Chem, 2024).

Legend:
[1] = target: ATR/ATRIP (Homo sapiens, UniProt Q13535); assay: Inhibition of ATR/ATRIP (unknown origin) using 5-FAM-AK-17 as substrate preincubated with compound for 10 mins followed by ATP addition and measured after 240 mins by mobility shift assay; format: protein-complex assay
[2] = target: T1, Serine/threonine-protein kinase mTOR (Homo sapiens, UniProt P42345); assay: Inhibition of human mTOR at 10 uM relative to control
[3] = target: NUAK family SNF1-like kinase 1 (Homo sapiens) (UniProt O60285); assay: Inhibition of human ARK5 at 10 uM relative to control
[4] = target: T2, Tyrosine-protein kinase Lck (Homo sapiens, UniProt P06239); assay: Inhibition of human LCK at 10 uM relative to control
[5] = target: T3, Tyrosine-protein kinase BTK (Homo sapiens, UniProt Q06187); assay: Inhibition of human BTK at 10 uM relative to control
[6] = target: Tyrosine-protein kinase Mer (Homo sapiens) (UniProt Q12866); assay: Inhibition of human MER at 10 uM relative to control
[7] = target: Serine/threonine-protein kinase BRSK2 (Homo sapiens) (UniProt Q8IWQ3); assay: Inhibition of human BRSK2 at 10 uM relative to control
[8] = target: Interleukin-1 receptor-associated kinase 4 (Homo sapiens) (UniProt Q9NWZ3); assay: Inhibition of human IRAK4 at 10 uM relative to control
[9] = target: T4, Aurora kinase B (Homo sapiens, UniProt Q96GD4); assay: Inhibition of human Aurora B at 10 uM relative to control
[10] = target: T5, Tyrosine-protein kinase JAK1 (Homo sapiens, UniProt P23458); assay: Inhibition of human JAK1 at 10 uM relative to control
[11] = target: T6, Cyclin-dependent kinase 2 (Homo sapiens, UniProt P24941); assay: Inhibition of human CDK2 at 10 uM relative to control
[12] = target: AMPK alpha2/beta1/gamma1 (Homo sapiens) (UniProt P54646+P54619+Q9Y478); assay: Inhibition of human AMPK alpha2/beta1/gamma1 at 10 uM relative to control; format: protein-complex assay
[13] = target: T7, Tyrosine-protein kinase Lyn (Homo sapiens, UniProt P07948); assay: Inhibition of human LYN at 10 uM relative to control
Target sequence in this assay (P07948 2-512 limits assumed): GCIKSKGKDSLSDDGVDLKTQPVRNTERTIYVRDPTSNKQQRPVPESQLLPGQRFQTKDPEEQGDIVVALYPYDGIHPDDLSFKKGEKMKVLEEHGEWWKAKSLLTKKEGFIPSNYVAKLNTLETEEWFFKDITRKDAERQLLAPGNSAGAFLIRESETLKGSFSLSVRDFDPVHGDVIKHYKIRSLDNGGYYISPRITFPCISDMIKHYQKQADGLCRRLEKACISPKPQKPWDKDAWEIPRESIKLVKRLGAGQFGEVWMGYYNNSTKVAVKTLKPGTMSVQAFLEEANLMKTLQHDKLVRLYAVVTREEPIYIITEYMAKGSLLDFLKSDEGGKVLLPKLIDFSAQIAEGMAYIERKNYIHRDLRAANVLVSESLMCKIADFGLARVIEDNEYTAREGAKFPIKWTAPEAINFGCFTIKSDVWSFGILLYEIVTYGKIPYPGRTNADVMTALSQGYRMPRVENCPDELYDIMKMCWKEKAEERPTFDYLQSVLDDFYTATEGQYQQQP

[14] = target: Serine/threonine-protein kinase 17B (Homo sapiens) (UniProt O94768); assay: Inhibition of human DRAK2 at 10 uM relative to control
[15] = target: Receptor-type tyrosine-protein kinase FLT3 (Homo sapiens) (UniProt P36888); assay: Inhibition of human FLT3 at 10 uM relative to control
[16] = target: T1, Serine/threonine-protein kinase mTOR; assay: Inhibition of human mTOR
[17] = target: NUAK family SNF1-like kinase 1 (Homo sapiens, UniProt O60285); assay: Inhibition of human ARK5
[18] = target: T2, Tyrosine-protein kinase Lck; assay: Inhibition of human LCK
[19] = target: T3, Tyrosine-protein kinase BTK; assay: Inhibition of human BTK
[20] = target: Tyrosine-protein kinase Mer (Homo sapiens, UniProt Q12866); assay: Inhibition of human MER
[21] = target: Tyrosine-protein kinase ABL1 (Homo sapiens, UniProt P00519); assay: Inhibition of human ABL
[22] = target: Serine/threonine-protein kinase BRSK2 (Homo sapiens, UniProt Q8IWQ3); assay: Inhibition of human BRSK2
[23] = target: Interleukin-1 receptor-associated kinase 4 (Homo sapiens, UniProt Q9NWZ3); assay: Inhibition of human IRAK4
[24] = target: T4, Aurora kinase B; assay: Inhibition of human Aurora B
[25] = target: T5, Tyrosine-protein kinase JAK1; assay: Inhibition of human JAK1
[26] = target: T6, Cyclin-dependent kinase 2; assay: Inhibition of human CDK2
[27] = target: AMPK alpha2/beta1/gamma1 (Homo sapiens, UniProt P54619+P54646+Q9Y478); assay: Inhibition of human AMPK alpha2/beta1/gamma1; format: protein-complex assay
[28] = target: T7, Tyrosine-protein kinase Lyn; assay: Inhibition of human LYN
Target sequence in this assay (P07948 whole entry): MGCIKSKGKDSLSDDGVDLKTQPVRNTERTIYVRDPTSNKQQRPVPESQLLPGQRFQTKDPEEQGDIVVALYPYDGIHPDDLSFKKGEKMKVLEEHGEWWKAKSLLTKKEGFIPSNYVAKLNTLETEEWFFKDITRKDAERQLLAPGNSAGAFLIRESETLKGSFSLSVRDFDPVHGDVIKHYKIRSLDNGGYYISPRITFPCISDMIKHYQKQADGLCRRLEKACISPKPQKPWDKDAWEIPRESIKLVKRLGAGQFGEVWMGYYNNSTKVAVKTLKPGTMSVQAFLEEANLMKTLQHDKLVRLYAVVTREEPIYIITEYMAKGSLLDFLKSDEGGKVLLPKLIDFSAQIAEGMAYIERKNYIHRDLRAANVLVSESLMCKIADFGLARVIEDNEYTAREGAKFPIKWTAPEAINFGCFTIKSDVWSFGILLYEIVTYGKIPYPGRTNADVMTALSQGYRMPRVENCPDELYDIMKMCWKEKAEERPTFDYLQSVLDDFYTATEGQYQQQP

[29] = target: Serine/threonine-protein kinase 17B (Homo sapiens, UniProt O94768); assay: Inhibition of human DRAK2
[30] = target: Receptor-type tyrosine-protein kinase FLT3 (Homo sapiens, UniProt P36888); assay: Inhibition of human FLT3
[31] = test system: Granta-519; assay: Antiproliferative activity against human Granta-519 cells assessed as inhibition of cell growth incubated for 72 hrs by MTS assay; format: functional, cell-based; details: Granta-519, 72 h
[32] = test system: A2780; assay: Antiproliferative activity against human A2780 cells assessed as inhibition of cell growth incubated for 72 hrs by MTS assay; format: functional, cell-based; details: A2780, 72 h
[33] = test system: OCI-Ly10; assay: Antiproliferative activity against human OCI-Ly10 cells assessed as inhibition of cell growth incubated for 72 hrs by MTS assay; format: functional, cell-based; details: OCI-Ly10, 72 h
[34] = test system: LoVo; assay: Antiproliferative activity against human LoVo cells assessed as inhibition of cell growth incubated for 72 hrs by MTS assay; format: functional, cell-based
[35] = test system: HCT-116; assay: Antiproliferative activity against human HCT-116 cells assessed as inhibition of cell growth incubated for 72 hrs by MTS assay; format: functional, cell-based; details: HCT-116, 72 h
[36] = test system: NCI-H446; assay: Antiproliferative activity against human NCI-H446 cells assessed as inhibition of cell growth incubated for 72 hrs by MTS assay; format: functional, cell-based; details: NCI-H446, 72 h
[37] = test system: HT-29; assay: Antiproliferative activity against human HT-29 cells assessed as inhibition of cell growth incubated for 72 hrs by MTS assay; format: functional, cell-based; details: HT-29, 72 h
[38] = test system: SUD4; assay: Antiproliferative activity against human SU-DHL-4 cells assessed as inhibition of cell growth incubated for 72 hrs by MTS assay; format: functional, cell-based; details: SU-DHL-4, 72 h
[39] = test system: DLD-1; assay: Antiproliferative activity against human DLD-1 cells assessed as inhibition of cell growth incubated for 72 hrs by MTS assay; format: functional, cell-based; details: DLD-1, 72 h
[40] = test system: CAPAN-1; assay: Antiproliferative activity against human CAPAN-1 cells assessed as inhibition of cell growth incubated for 72 hrs by MTS assay; format: functional, cell-based; details: CAPAN-1, 72 h
[41] = test system: PC-3; assay: Antiproliferative activity against human PC-3 cells assessed as inhibition of cell growth incubated for 72 hrs by MTS assay; format: functional, cell-based; details: PC-3, 72 h
[42] = Lipophilicity, logD of compound at pH 7.4; format: physicochemical; details: buffer
[43] = Plasma protein binding in mouse; format: ADME, cell-free; details: read-out: PPB (converted)
[44] = Apparent permeability across apical to basolateral side in human Caco-2 cells; format: ADME, cell-based
[45] = Apparent permeability across basolateral to apical side in human Caco-2 cells; format: ADME, cell-based
[46] = Efflux ratio of apparent permeability across […] side in human Caco-2 cells; format: ADME, cell-based
[47] = Apparent permeability across apical to basolateral side in dog MDCK-MDR1 cells; format: ADME, cell-based, Canis lupus familiaris
[48] = Apparent permeability across basolateral to apical side in dog MDCK-MDR1 cells; format: ADME, cell-based, Canis lupus familiaris
[49] = Efflux ratio of apparent permeability across […] side in dog MDCK-MDR1 cells; format: ADME, cell-based, Canis lupus familiaris
[50] = target: CYP1A2 (Homo sapiens, UniProt P05177); assay: Time dependent inhibition of CYP1A2 (unknown origin) at 10 uM relative to control; format: ADME; details: read-out: TDI
[51] = target: CYP2C9 (Homo sapiens, UniProt P11712); assay: Time dependent inhibition of CYP2C9 (unknown origin) at 10 uM relative to control; format: ADME; details: read-out: TDI
[52] = AUClast in ICR mouse at 50 mg/kg,po measured upto 24 hrs by LC-MS/MS analysis; format: ADME, organism-based; details: in vivo
[53] = target: CYP2C19 (Homo sapiens, UniProt P33261); assay: Time dependent inhibition of CYP2C19 (unknown origin) at 10 uM relative to control; format: ADME; details: read-out: TDI
[54] = target: CYP2D6 (Homo sapiens, UniProt P10635); assay: Time dependent inhibition of CYP2D6 (unknown origin) at 10 uM relative to control; format: ADME; details: read-out: TDI
[55] = target: CYP3A4 (Homo sapiens, UniProt P08684); assay: Time dependent inhibition of CYP3A4 (unknown origin) at 10 uM relative to control; format: ADME; details: read-out: TDI
[56] = Half life in ICR mouse at 50 mg/kg,po measured upto 24 hrs by LC-MS/MS analysis; format: ADME, organism-based; details: in vivo
[57] = Tmax in ICR mouse at 50 mg/kg,po measured upto 24 hrs by LC-MS/MS analysis; format: ADME, organism-based; details: in vivo
[58] = Cmax in ICR mouse at 50 mg/kg,po measured upto 24 hrs by LC-MS/MS analysis; format: ADME, organism-based; details: in vivo
[59] = AUCinfinity in ICR mouse at 50 mg/kg,po measured upto 24 hrs by LC-MS/MS analysis; format: ADME, organism-based; details: in vivo

T4 sequence (Q96GD4 whole entry): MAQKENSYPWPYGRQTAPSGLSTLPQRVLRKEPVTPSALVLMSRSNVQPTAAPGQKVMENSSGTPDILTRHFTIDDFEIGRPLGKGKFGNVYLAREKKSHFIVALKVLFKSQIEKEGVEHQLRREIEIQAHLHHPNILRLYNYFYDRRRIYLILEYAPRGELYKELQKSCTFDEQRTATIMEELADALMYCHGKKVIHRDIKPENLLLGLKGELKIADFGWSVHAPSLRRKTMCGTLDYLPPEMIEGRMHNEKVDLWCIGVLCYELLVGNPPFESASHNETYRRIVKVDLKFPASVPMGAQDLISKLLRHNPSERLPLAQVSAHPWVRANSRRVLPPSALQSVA
T3 sequence (Q06187 whole entry): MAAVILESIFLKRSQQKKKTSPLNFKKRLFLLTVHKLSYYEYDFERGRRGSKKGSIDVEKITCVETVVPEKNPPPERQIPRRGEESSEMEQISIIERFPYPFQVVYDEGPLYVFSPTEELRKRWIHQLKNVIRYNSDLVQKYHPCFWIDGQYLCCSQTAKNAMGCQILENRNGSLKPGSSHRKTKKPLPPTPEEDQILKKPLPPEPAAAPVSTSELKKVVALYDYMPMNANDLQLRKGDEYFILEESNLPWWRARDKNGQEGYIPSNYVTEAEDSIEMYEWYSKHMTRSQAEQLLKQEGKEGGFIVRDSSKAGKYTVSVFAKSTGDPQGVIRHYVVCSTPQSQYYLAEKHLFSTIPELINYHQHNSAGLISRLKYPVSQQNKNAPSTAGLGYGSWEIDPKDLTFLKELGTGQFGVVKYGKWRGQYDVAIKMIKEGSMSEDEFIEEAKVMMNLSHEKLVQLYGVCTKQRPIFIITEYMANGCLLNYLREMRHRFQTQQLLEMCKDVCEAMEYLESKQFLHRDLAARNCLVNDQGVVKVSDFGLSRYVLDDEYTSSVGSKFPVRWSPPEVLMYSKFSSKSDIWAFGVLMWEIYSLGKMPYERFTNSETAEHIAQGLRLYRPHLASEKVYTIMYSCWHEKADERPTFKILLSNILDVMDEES
T5 sequence (P23458 whole entry): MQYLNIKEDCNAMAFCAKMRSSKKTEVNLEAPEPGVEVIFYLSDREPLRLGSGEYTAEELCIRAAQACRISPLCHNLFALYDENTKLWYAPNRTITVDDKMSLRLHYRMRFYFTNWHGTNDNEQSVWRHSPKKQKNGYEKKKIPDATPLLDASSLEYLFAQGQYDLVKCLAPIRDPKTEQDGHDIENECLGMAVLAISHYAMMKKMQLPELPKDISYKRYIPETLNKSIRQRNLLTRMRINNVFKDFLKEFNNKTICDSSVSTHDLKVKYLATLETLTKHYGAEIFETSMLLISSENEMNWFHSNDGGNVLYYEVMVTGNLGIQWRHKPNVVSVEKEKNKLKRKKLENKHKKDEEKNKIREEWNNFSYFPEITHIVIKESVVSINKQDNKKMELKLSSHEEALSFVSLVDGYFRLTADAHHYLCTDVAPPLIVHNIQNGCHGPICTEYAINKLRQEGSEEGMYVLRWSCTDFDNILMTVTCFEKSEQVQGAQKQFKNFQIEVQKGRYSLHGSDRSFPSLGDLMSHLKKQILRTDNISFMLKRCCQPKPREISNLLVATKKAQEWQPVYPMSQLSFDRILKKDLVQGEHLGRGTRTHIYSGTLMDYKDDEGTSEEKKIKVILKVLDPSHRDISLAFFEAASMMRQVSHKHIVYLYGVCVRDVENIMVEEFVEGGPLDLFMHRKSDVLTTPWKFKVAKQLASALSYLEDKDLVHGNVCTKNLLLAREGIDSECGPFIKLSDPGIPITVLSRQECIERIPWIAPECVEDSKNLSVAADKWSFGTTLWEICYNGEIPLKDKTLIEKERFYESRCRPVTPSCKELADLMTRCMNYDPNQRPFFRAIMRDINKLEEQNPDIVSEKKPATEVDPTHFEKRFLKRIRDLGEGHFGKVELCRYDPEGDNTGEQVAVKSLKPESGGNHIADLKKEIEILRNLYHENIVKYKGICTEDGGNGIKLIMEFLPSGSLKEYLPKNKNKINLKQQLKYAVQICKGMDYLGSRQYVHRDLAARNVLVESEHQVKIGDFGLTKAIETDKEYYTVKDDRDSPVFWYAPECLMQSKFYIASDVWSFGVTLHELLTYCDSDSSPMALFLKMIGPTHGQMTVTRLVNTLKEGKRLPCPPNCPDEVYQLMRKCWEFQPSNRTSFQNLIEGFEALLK
Sequence of NUAK family SNF1-like kinase 1 (Homo sapiens) (O60285 whole entry): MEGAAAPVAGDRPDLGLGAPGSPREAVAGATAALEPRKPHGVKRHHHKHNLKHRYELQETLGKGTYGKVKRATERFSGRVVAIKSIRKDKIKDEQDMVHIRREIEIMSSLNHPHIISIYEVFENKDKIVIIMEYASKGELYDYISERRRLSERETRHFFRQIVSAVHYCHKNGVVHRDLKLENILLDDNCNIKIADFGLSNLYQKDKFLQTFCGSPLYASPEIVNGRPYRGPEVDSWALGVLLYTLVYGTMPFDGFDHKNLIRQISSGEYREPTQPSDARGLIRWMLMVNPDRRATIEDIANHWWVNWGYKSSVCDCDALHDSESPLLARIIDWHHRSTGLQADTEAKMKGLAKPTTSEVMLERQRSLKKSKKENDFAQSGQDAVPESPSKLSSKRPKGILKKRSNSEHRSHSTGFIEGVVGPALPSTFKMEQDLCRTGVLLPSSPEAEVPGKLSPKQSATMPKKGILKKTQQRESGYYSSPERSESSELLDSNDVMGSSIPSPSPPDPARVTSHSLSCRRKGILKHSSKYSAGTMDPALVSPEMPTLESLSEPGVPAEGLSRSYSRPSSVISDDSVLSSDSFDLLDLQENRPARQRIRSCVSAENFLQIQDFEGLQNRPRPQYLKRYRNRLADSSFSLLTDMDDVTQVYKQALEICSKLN
Sequence of NUAK family SNF1-like kinase 1 (O60285 whole entry): as above
Sequence of CYP2C9 (P11712 whole entry): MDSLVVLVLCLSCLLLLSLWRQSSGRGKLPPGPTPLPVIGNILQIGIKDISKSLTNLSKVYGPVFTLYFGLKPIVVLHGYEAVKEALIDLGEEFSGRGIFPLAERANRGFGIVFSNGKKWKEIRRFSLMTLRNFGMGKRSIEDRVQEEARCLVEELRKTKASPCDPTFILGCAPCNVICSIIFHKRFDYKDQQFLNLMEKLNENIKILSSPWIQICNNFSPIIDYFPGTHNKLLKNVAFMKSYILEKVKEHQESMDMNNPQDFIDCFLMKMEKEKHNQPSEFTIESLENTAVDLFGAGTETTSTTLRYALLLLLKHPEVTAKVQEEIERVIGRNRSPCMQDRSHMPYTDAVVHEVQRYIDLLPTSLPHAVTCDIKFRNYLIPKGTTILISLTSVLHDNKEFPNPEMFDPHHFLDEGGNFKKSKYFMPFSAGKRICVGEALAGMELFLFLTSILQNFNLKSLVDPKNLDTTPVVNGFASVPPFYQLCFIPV
Sequence of CYP1A2 (P05177 whole entry): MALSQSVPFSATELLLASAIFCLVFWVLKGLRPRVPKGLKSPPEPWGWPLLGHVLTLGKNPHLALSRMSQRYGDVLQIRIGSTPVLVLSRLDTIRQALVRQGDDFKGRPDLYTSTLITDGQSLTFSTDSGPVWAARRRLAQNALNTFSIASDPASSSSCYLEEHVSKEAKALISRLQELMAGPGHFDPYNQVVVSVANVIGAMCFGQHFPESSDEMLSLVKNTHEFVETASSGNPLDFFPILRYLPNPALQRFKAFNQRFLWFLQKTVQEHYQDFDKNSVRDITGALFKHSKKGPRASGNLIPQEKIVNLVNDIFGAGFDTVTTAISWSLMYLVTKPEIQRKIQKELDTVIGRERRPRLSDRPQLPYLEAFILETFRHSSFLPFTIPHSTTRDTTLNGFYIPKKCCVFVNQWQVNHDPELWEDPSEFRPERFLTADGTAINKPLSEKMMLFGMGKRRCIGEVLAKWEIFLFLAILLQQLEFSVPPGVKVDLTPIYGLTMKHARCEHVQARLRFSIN

C[C@@H]1COCCN1c1nc(-c2cncc3[nH]ccc23)nc2c1ccn2S(C)(=O)=O
IC50 [1]: 1.6 nM
inhibition [2]: 102%
inhibition [3]: 20.5%
inhibition [4]: 79.2%
inhibition [5]: 41.8%
inhibition [6]: 35.7%
inhibition [7]: 21.6%
inhibition [8]: 46.1%
inhibition [9]: 22.5%
inhibition [10]: 29.5%
inhibition [11]: 5.98%
inhibition [12]: 1.11%
inhibition [13]: 13.3%
inhibition [14]: 24.6%
inhibition [15]: 62.8%
IC50 [16]: 22.4 nM
IC50 [17]: > 10000 nM
IC50 [18]: 4950 nM
IC50 [19]: > 10000 nM
IC50 [20]: > 10000 nM
IC50 [21]: > 10000 nM
IC50 [22]: > 10000 nM
IC50 [23]: > 10000 nM
IC50 [24]: > 10000 nM
IC50 [25]: > 10000 nM
IC50 [26]: > 10000 nM
IC50 [27]: > 10000 nM
IC50 [28]: > 10000 nM
IC50 [29]: > 10000 nM
IC50 [30]: > 10000 nM
IC50 [31]: 100 nM
IC50 [32]: 90 nM
IC50 [33]: 100 nM
IC50 [34]: 150 nM
IC50 [35]: 150 nM
IC50 [36]: 230 nM
IC50 [37]: 350 nM
IC50 [38]: 300 nM
IC50 [39]: 460 nM
IC50 [40]: 820 nM
IC50 [41]: 780 nM
logD [42]: 3.11
fraction unbound [43]: 0.006
Papp A→B [44]: 21.5 ×10⁻⁶ cm/s
Papp B→A [45]: 30.2 ×10⁻⁶ cm/s
efflux ratio [46]: 1.41
Papp A→B [47]: 6.02 ×10⁻⁶ cm/s
Papp B→A [48]: 29 ×10⁻⁶ cm/s
efflux ratio [49]: 4.81
inhibition at 10 µM [50]: 28.6%
inhibition at 10 µM [51]: 0%
AUC(0-t) at 24 h [52]: 46700 ng·h/mL
inhibition at 10 µM [53]: 0%
inhibition at 10 µM [54]: 3.71%
inhibition at 10 µM [55]: 18.6%
half-life [56]: 2.01 h
Tmax [57]: 0.5 h
Cmax [58]: 18900 ng/mL
AUC(0-inf) [59]: 46700 ng·h/mL
